The target of one test is T1, TLR8 (Homo sapiens, UniProt Q9NR97).
T1 construct: treated with TIC10-7 for 1 hour, and then treated with TL8-506 as a TLR8 agonist for 4 hours; endogenous in cells; host or cells: THP-1 differentiated with PMA
T1 sequence (Q9NR97 27-1041): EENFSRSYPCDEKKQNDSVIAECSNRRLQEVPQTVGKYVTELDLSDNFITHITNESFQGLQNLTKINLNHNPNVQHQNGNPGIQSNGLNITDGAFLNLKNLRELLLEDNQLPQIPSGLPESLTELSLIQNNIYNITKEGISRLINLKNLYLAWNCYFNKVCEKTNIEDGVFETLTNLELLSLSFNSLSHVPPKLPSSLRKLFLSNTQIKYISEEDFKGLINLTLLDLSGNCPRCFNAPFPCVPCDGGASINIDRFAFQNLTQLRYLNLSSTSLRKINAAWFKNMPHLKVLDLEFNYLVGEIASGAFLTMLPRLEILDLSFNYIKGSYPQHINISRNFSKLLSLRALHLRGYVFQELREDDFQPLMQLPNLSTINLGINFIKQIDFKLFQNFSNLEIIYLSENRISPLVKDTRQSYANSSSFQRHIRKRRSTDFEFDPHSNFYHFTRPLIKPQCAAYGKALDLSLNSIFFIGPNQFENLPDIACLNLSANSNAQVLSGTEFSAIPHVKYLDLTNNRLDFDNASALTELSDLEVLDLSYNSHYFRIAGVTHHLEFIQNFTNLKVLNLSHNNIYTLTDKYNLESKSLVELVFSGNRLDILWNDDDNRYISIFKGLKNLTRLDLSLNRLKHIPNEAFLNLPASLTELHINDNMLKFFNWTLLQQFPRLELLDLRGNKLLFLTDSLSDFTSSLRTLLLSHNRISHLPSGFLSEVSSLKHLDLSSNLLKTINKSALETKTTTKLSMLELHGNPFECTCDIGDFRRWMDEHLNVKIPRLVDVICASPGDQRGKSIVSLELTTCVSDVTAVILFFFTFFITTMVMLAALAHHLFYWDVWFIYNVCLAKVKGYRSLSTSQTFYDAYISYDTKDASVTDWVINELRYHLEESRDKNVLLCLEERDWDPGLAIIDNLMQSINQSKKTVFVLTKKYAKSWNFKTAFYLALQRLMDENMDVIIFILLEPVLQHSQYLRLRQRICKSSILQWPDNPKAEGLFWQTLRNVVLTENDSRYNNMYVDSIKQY
Kind of test: TLR8-mediated TNF-α secretion (TL8-506) in PMA-differentiated THP-1 cells, ELISA. Type of test: cell-based. As to conditions: differentiated THP-1, 10 or 20 μM. The method, then:
A murine macrophage cell line (RAW 264.7) was obtained from the Korean Cell Line Bank (KCLB) and the Korean Cell Line Research Foundation (KCLRF). The cells were cultured in DMEM (Dulbecco's modified Eagle's medium; HyClone Laboratories, Inc., San Angelo, Texas, USA) supplemented with 1% penicillin/streptomycin (HyClone Laboratories, Inc.) antibiotic mixture and 10% fetal bovine serum (FBS; Thermo Fisher Scientific, Inc., Waltham, MA, USA). A human monocytic cell line (THP-1) was provided by Dr. Chang-Hee Suh, Ajou University School of Medicine, Suwon, Korea. […]
Agonists specific to TLR1/TLR2 (Pam3CSK4), TLR2/TLR6 (FSL-1), TLR3 (Poly I:C), TLR7 (imiquimod), and TLR8 (TL8-506) were purchased from InvivoGen Ltd. (Hong-Kong, China), and a TLR4-specific agonist (LPS from E. coli O111:B4) was purchased from Sigma-Aldrich, Inc. For TLR9-specific stimulation, class C CpG-ODN (ODN2395, 5′-TCGTCGTTTTCGGCGCGCGCCG-3′) having full phosphorothioate backbone modification was synthesized (Bioneer, Inc., Daejeon, Korea). […] The cells were treated with test compounds or a control medium for 1 hour, and then stimulated with a TLR agonist for 4 hours, or 24 hours in the case of poly(I:C), and the cytokine secretion was monitored. […]
(In general: An ELISA detects its analyte on a solid surface through an enzyme-linked reagent.)

In test [1] the test system is phosphorylation of MAPK (JNK, p38-MAPK, ERK) and p65 subunit of NF-κB. As to the kind of experiment: Western blot of NF-κB p65 and MAPK phosphorylation after ODN2395 stimulation. Type of test: cell-based, murine. As to conditions: RAW 264.7, 20 μM, ODN2395 stimulation 15 min and 30 min. The method, then:
RAW 264.7 cells were seeded into a 60 mm cell culture dish at a density of 2×10^6 cells/dish, and treated with test compounds followed by TLR agonists. The cell lysate was harvested through mammalian protein extraction kit (M-PER; Thermo Fisher Scientific, Inc.) with the protease and phosphatase inhibitor cocktail (Thermo Fisher Scientific, Inc.), and the protein levels were quantified using a bicinchoninic acid assay (Sigma-Aldrich, Co.). Protein samples were separated by SDS-PAGE and transferred to nitrocellulose membranes (GE Healthcare, Inc., Chicago, IL, USA). The membranes were incubated with primary antibodies specific to phospho-JNK (Cell Signaling Technology, Inc., Danvers, MA, USA), phospho-ERK (Santa Cruz Biotechnology, Inc., Dallas, TX, USA), phospho-p38-MAPK (Cell Signaling Technology, Inc.), phospho-p65 (Cell Signaling Technology, Inc.), or β-actin (Santa Cruz Biotechnology, Inc.). […] Protein levels were confirmed using a chemiluminescent substrate (SuperSignal™ West Pico PLUS, Thermo Fisher Scientific, Inc.) and a luminescence detection system (Fusion Solo S, VILBER, France).
In general, MYD88 recruitment by TLRs triggers the activation of the transcription factor NF-κB as well as the cell proliferation factor MAPK. […]

Each structure is given as a SMILES string.

For `COc1ccc(CNc2ncc(-c3ccc4c(c3)OCO4)n2C)c(OC)c1` [TIC10-7, 5-(2H-1,3-benzodioxol-5-yl)-N-[(2,4-dimethoxyphenyl)methyl]-1-methyl-1H-imidazol-2-amine], the “TLR8-mediated TNF-α secretion” value at TLR8 was “least affected”. The “phosphorylation of MAPK (JNK, p38-MAPK, and ERK) and the p65 subunit of NF-κB” value in test [1] is recorded as “blocked the robust phosphorylation”.

For the origin of these results see patent US12565475B2, “Small molecule compound inhibiting signal transmission path of TLR7 and TLR9 and use thereof” (AJOU UNIVERSITY INDUSTRY-ACADEMIC COOPERATION FOUNDATION, priority 2019, dated 2026).
